24 molecules from patent publication US20070072897A1, “Phenylaminopropanol derivatives and methods of their use” (Wyeth, priority 2005, published 2007) can be followed below.

Counter-ions that a name gives are not always drawn.

For the first test, the target named is T1, human hNET (Homo sapiens, UniProt P23975).
T1 construct: expressed in transfected cells; host or cells: MDCK (MDCK-Net6)
T1 sequence (P23975 whole entry): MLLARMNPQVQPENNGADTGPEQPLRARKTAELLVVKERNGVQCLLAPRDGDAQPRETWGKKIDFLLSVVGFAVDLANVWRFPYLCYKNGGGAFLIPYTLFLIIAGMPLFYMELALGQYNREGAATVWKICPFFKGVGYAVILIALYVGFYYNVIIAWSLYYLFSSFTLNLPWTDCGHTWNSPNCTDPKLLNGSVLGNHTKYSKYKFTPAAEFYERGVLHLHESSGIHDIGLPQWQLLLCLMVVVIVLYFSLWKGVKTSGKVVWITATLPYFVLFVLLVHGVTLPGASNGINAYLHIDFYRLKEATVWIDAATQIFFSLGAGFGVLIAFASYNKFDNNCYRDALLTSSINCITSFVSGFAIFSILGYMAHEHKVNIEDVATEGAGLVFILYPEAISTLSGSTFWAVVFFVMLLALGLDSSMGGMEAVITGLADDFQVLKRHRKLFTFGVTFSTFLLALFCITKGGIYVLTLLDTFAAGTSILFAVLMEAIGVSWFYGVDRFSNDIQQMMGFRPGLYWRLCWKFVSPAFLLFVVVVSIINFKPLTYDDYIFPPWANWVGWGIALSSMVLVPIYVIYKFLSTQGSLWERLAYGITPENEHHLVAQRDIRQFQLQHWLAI
As to the kind of experiment: Norepinephrine (NE) uptake assay in MDCK-Net6 cells. The format is cell-based. The settings on record: [3H]NE uptake, MDCK-Net6 cells stably transfected with hNET. The procedure:
Cells were plated at 300,000/T75 flask and cells were split twice weekly. […] Cells were plated at 250,000 cells/T75 flask and split twice weekly.
Norepinephrine (NE) Uptake Assay
On day 1, cells were plated at 3,000 cells/well in growth medium and maintained in a cell incubator (37° C., 5% CO2). On day 2, growth medium was replaced with 200 μl of assay buffer (25 mM HEPES; 120 mM NaCl; 5 mM KCl; 2.5 mM CaCl2; 1.2 mM MgSO4; 2 mg/ml glucose (pH 7.4, 37° C.)) containing 0.2 mg/ml ascorbic acid and 10 μM pargyline. Plates containing cells with 200 μl of assay buffer were equilibrated for 10 minutes at 37° C. prior to addition of compounds. A stock solution of desipramine was prepared in DMSO (10 mM) and delivered to triplicate wells containing cells for a final test concentration of 1 μM. Data from these wells were used to define non-specific NE uptake (minimum NE uptake). Test compounds were prepared in DMSO (10 mM) and diluted in assay buffer according to test range (1 to 10,000 nM). Twenty-five microliters of assay buffer (maximum NE uptake) or test compound were added directly to triplicate wells containing cells in 200 μl of assay buffer. The cells in assay buffer with test compounds were incubated for 20 minutes at 37° C. […] The reaction was terminated by decanting the supernatant from the plate. The plates containing cells were washed twice with 200 μl assay buffer (37° C.) to remove free radioligand. The plates were then inverted, left to dry for 2 minutes, then reinverted and air-dried for an additional 10 minutes. […] After cell lysis, 75 μl of scintillation cocktail was added to each well and the plates were sealed with film tape. The plates were returned to the shake table and vigorously shaken for a minimum of 10 minutes to ensure adequate partitioning of organic and aqueous solutions. The plates were counted in a Wallac Microbeta counter (PerkinElmer) to collect the raw cpm data.
For each experiment, a data stream of cpm values collected from the Wallac Microbeta counter was downloaded to a Microsoft Excel statistical application program. Calculations of EC50 values were made using the transformed-both-sides logistic dose response program written by Wyeth Biometrics Department.
As a reminder, the EC50 is the midpoint of the concentration-response curve. The molecule `CNC[C@@H](O)[C@H](c1cccc(F)c1)n1cc(-c2ccccc2OC(F)(F)F)c2ccccc21` [Example 34, (1S,2R)-1-(3-fluorophenyl)-3-(methylamino)-1-{3-[2-(trifluoromethoxy)phenyl]-1H-indol-1-yl}propan-2-ol hydrochloride] showed a concentration giving a half-maximal response (EC50) of 0.327 µM. This counts as sub-micromolar.
The same measure, in the same setting: for `CNC[C@@H](O)[C@H](c1cccc(F)c1)n1cc(-c2ccccc2OC(C)C)c2ccccc21` [Example 35, (1S,2R)-1-(3-fluorophenyl)-3-(methylamino)-1-{3-[2-(isopropoxy)phenyl]-1H-indol-1-yl}propan-2-ol hydrochloride] the value was 0.169 µM.
The same measure, in the same setting: as for `CNC[C@@H](O)[C@H](c1cccc(F)c1)n1cc(-c2ccc(F)cc2)c2ccccc21` [Example 36, (1S,2R)-1-(3-fluorophenyl)-1-[3-(4-fluorophenyl)-1H-indol-1-yl]-3-(methylamino)propan-2-ol hydrochloride], the figure is 0.711 µM.
Still for that read-out and setting: for `CNC[C@@H](O)[C@H](c1cccc(F)c1)n1cc(-c2ccc(F)cc2F)c2ccccc21` [Example 38, (1S,2R)-1-[3-(2,4-difluorophenyl)-1H-indol-1-yl]-1-(3-fluorophenyl)-3-(methylamino)propan-2-ol hydrochloride] the value was 0.135 µM; for `CNC[C@@H](O)[C@H](c1cccc(F)c1)n1cc(-c2cc(F)ccc2F)c2ccccc21` [Example 39, (1S,2R)-1-[3-(2,5-difluorophenyl)-1H-indol-1-yl]-1-(3-fluorophenyl)-3-(methylamino)propan-2-ol hydrochloride], 0.07 µM.
In turn, `CNC[C@@H](O)[C@H](c1cccc(F)c1)n1cc(-c2cccc(OC)c2OC)c2ccccc21` [Example 40, (1S,2R)-1-[3-(2,3-dimethoxyphenyl)-1H-indol-1-yl]-1-(3-fluorophenyl)-3-(methylamino)propan-2-ol hydrochloride] returned an EC50 of 0.041 µM. Against the preceding molecule, the EC50 is about 1.7-fold lower.
Same read-out and setting: for `CNC[C@@H](O)[C@H](c1cccc(F)c1)n1cc(-c2ccc(Cl)cc2Cl)c2ccccc21` [Example 41, (1S,2R)-1-[3-(2,4-dichlorophenyl)-1H-indol-1-yl]-1-(3-fluorophenyl)-3-(methylamino)propan-2-ol hydrochloride] the value was 0.193 µM.
For `CCOc1ccccc1-c1cn([C@@H](c2cccc(F)c2)[C@H](O)CNC)c2ccccc12` [Example 42, (1S,2R)-1-[3-(2-ethoxyphenyl)-1H-indol-1-yl]-1-(3-fluorophenyl)-3-(methylamino)propan-2-ol hydrochloride], the EC50 worked out at 0.071 µM.
On the same count and under the same terms, as for `CNC[C@@H](O)[C@H](c1cccc(F)c1)n1ccc2cc(OC)nc(Cl)c21` [Example 43, (1S,2R)-1-(7-chloro-5-methoxy-1H-pyrrolo[2,3-c]pyridin-1-yl)-1-(3-fluorophenyl)-3-(methylamino)propan-2-ol hydrochloride], the figure is 0.299 µM; as for `CNC[C@@H](O)[C@H](c1ccccc1)n1ccc2cc(C)nc(Cl)c21` [Example 44, (1S,2R)-1-(7-chloro-5-methyl-1H-pyrrolo[2,3-c]pyridin-1-yl)-3-(methylamino)-1-phenylpropan-2-ol hydrochloride], 0.416 µM.
On the same count and under the same terms, for `CNC[C@@H](O)[C@H](c1cccc(F)c1)n1ccc2ccnc(C)c21` [Example 50, (1S,2R)-1-(3-fluorophenyl)-3-(methylamino)-1-(7-methyl-1H-pyrrolo[2,3-c]pyridin-1-yl)propan-2-ol hydrochloride] the value was 0.521 µM; for `CCC1CN([C@@H](c2ccccc2)[C@H](O)CNC)c2ccccc21` (stereo partly drawn) [Example 59, (1S,2R)-1-(3-ethyl-2,3-dihydro-1H-indol-1-yl)-3-(methylamino)-1-phenylpropan-2-ol hydrochloride], 0.016 µM.
Still for that read-out and setting: for `CNC[C@@H](O)[C@H](c1ccccc1)N1CC(C(C)C)c2ccccc21` (stereo partly drawn) [Example 60, (1S,2R)-1-(3-isopropyl-2,3-dihydro-1H-indol-1-yl)-3-(methylamino)-1-phenylpropan-2-ol hydrochloride] the value was 0.067 µM; for `CC1(C)CN([C@@H](c2cc(F)cc(F)c2)[C@H](O)CN)c2ccccc21` [Example 61, (1S,2R)-3-amino-1-(3,5-difluorophenyl)-1-(3,3-dimethyl-2,3-dihydro-1H-indol-1-yl)propan-2-ol hydrochloride], 0.216 µM; for `CNC[C@@H](O)[C@H](c1cc(F)cc(F)c1)N1C(=O)C(C)(C)c2cccc(F)c21` [Example 62, 1-[(1S,2R)-1-(3,5-difluorophenyl)-2-hydroxy-3-(methylamino)propyl]-7-fluoro-3,3-dimethyl-1,3-dihydro-2H-indol-2-one hydrochloride], 0.004 µM.
In turn, `CNC[C@@H](O)[C@H](c1cccc(F)c1)N1C(=O)C(C)(C)c2cc(F)cc(F)c21` [Example 63, 5,7-difluoro-1-[(1S,2R)-1-(3-fluorophenyl)-2-hydroxy-3-(methylamino)propyl]-3,3-dimethyl-1,3-dihydro-2H-indol-2-one hydrochloride] returned a 50% effective concentration (EC50) of 0.051 µM.
On the same count and under the same terms, as for `CNC[C@@H](O)[C@H](c1cc(F)cc(F)c1)N1C(=O)C(C)(C)c2ccccc21` [Example 64, 1-[(1S,2R)-1-(3,5-difluorophenyl)-2-hydroxy-3-(methylamino)propyl]-3,3-dimethyl-1,3-dihydro-2H-indol-2-one hydrochloride], the figure is 0.02 µM.

Staying with this test, now noted: at 1 μM; [3H]NE uptake, MDCK-Net6 cells; read-out: hNET Percentage inhibition at 1 μM.
Usually inhibition stands for the relative decrease from the control value, in per cent. `CNC[C@@H](O)[C@H](c1cccc(F)c1)n1cc(-c2ccccc2Oc2ccccc2)c2ccccc21` [Example 37, (1S,2R)-1-(3-fluorophenyl)-3-(methylamino)-1-[3-(2-phenoxyphenyl)-1H-indol-1-yl]propan-2-ol hydrochloride]: the inhibition at 1 µM was determined as 26%.
The same measure, in the same setting: as for `CNC[C@@H](O)[C@H](c1ccccc1)n1ccc2cc(OC)ncc21` [Example 45, (1S,2R)-1-(5-methoxy-1H-pyrrolo[2,3-c]pyridin-1-yl)-3-(methylamino)-1-phenylpropan-2-ol hydrochloride], the figure is 43%; as for `CNC[C@@H](O)[C@H](c1cccc(F)c1)n1ccc2cc(OC)ncc21` [Example 46, (1S,2R)-1-(3-fluorophenyl)-1-(5-methoxy-1H-pyrrolo[2,3-c]pyridin-1-yl)-3-(methylamino)propan-2-ol hydrochloride], 46%.
Take `CNC[C@@H](O)[C@H](c1ccccc1)n1ccc2cc(C)ncc21` [Example 47, (1S,2R)-3-(methylamino)-1-(5-methyl-1H-pyrrolo[2.3-c]pyridin-1-yl)-1-phenylpropan-2-ol hydrochloride]: the inhibition at 1 µM worked out at 35%.
For `CNC[C@@H](O)[C@H](c1cccc(F)c1)n1ccc2cc(C)ncc21` [Example 48, (1S,2R)-1-(3-fluorophenyl)-3-(methylamino)-1-(5-methyl-1H-pyrrolo[2,3-c]pyridin-1-yl)propan-2-ol hydrochloride], the inhibition at 1 µM is 51%.
On the same count and under the same terms, as for `CNC[C@@H](O)[C@H](c1ccccc1)n1ccc2ccnc(C)c21` [Example 49, (1S,2R)-3-(methylamino)-1-(7-methyl-1H-pyrrolo[2,3-c]pyridin-1-yl)-1-phenylpropan-2-ol hydrochloride], the figure is 51%; as for `CNC[C@@H](O)[C@H](c1cccc(F)c1)N1CCN(Cc2ccccc2)c2ccccc21` [Example 53, (1S,2R)-1-(4-benzyl-3,4-dihydroquinoxalin-1(2H)-yl)-1-(3-fluorophenyl)-3-(methylamino)propan-2-ol hydrochloride], 49%.
